We go through 17 compounds from US20100292266A1, “Oxazolyl Piperidine Modulators of Fatty Acid Amide Hydrolase” (priority 2006, published 2010).

One experiment concerns the target T1, Rat FAAH (Rattus norvegicus, UniProt P97612).
T1 construct: expressed in transfected cells
T1 sequence (P97612 1-579): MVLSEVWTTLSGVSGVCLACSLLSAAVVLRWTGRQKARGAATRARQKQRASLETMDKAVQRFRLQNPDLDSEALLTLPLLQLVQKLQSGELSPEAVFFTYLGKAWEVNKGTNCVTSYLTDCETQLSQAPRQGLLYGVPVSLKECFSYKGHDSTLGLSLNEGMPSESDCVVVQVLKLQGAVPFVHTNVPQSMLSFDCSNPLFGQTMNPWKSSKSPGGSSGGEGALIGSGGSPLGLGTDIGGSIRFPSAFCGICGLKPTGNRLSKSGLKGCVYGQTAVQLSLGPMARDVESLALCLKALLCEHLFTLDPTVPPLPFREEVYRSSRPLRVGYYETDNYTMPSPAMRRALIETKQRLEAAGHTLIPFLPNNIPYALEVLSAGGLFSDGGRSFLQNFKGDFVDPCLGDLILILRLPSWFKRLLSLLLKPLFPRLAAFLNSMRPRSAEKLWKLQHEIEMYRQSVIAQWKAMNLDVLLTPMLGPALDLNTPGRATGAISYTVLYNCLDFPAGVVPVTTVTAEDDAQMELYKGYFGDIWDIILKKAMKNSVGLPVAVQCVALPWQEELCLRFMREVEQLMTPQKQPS
The experiment in a line: Assay Method 2: FAAH assay, 3H-anandamide hydrolysis in cell homogenate. The format is biochemical. The following applies: transfected SK-N-MC cell homogenate, 80 nM 3H-AEA, 1 h rt, > = solubility limit or highest concentration tested. As for the experimental part: A. Transfection of Cells with Rat FAAH
(§1) A 10-cm tissue culture dish with a confluent monolayer of SK-N-MC cells was split 2 days (d) prior to transfection. Using sterile technique, the media was removed and the cells were detached from the dish by the addition of trypsin. One fifth of the cells were then placed onto a new 10-cm dish. Cells were grown in a 37° C. incubator with 5% CO2 in Minimal Essential Media Eagle with 10% Fetal Bovine Serum. After 2 d, cells were approximately 80% confluent. These cells were removed from the dish with trypsin and pelleted in a clinical centrifuge. The pellet was re-suspended in 400 μL complete media and transferred to an electroporation cuvette with a 0.4 cm gap between the electrodes. Supercoiled rat FAAH cDNA (1 μg) was added to the cells and mixed. The voltage for the electroporation was set at 0.25 kV, and the capacitance was set at 960 μF. After electroporation, the cells were diluted into complete media (10 mL) and plated onto four 10-cm dishes. Because of the variability in the efficiency of electroporation, four different concentrations of cells were plated. The ratios used were 1:20, 1:10, and 1:5, with the remainder of the cells being added to the fourth dish. The cells were allowed to recover for 24 h before adding the selection media (complete media with 600 μg/mL G418). After 10 d, dishes were analyzed for surviving colonies of cells. Dishes with well-isolated colonies were used. Cells from individual colonies were isolated and tested.
(§2) The assay mixture consisted of 50 μL of the cell homogenate, 10 μL of the test compound, and 40 μL of anandamide [1-^3H-ethanolamine] (^3H-AEA, Perkin-Elmer, 10.3 Ci/mmol), which was added last, for a final tracer concentration of 80 nM. The reaction mixture was incubated at it for 1 h. During the incubation, 96-well Multiscreen filter plates (catalog number MAFCNOB50; Millipore, Bedford, Mass., USA) were loaded with 25 μL of activated charcoal (Multiscreen column loader, catalog number MACL09625, Millipore) and washed once with 100 μL of MeOH. Also during the incubation, 96-well DYNEX MicroLite plates (catalog number NL510410) were loaded with 100 μL of MicroScint40 (catalog number 6013641, Packard Bioscience, Meriden, Conn., USA). After the 1 h incubation, 60 μL of the reaction mixture were transferred to the charcoal plates, which were then assembled on top of the DYNEX plates using Centrifuge Alignment Frames (catalog number MACF09604, Millipore). The unbound labeled ethanolamine . was centrifuged through to the bottom plate (5 min at 2000 rpm), which was preloaded with the scintillant, as described above. The plates were sealed and left at rt for 1 h before counting on a Hewlett Packard TopCount.
(§3) Where activity is shown as greater than (>) a particular value, the value is the solubility limit of the compound in the assay medium or the highest concentration tested in the assay.

The next experiment deals with T2, FAAH (Homo sapiens, UniProt O00519).
T2 sequence (O00519 1-579): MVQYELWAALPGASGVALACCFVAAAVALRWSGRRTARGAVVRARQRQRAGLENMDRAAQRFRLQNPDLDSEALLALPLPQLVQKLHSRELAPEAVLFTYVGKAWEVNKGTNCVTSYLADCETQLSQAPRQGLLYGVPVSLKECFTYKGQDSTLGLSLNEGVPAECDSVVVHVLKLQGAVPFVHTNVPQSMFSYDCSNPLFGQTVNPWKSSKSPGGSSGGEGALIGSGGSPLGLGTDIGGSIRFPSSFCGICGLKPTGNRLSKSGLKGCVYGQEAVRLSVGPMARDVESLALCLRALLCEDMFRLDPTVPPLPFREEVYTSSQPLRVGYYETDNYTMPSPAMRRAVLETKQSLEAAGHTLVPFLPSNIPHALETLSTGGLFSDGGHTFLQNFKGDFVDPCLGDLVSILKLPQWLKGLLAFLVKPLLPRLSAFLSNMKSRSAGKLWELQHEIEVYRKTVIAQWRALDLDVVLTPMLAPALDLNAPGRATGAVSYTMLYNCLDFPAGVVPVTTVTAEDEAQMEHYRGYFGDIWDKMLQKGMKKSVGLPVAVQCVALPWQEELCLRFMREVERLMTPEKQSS
Description: Assay Method 1: FAAH assay, 3H-anandamide hydrolysis in cell homogenate. The conditions noted are these: T84 or transfected SK-N-MC cell homogenate, 80 nM 3H-AEA, 1 h rt, > = solubility limit or highest concentration tested. The format is biochemical. More on the design: expressed in transfected cells. As for the experimental part:
A. Transfection of Cells with Human FAAH
as §1, with “Supercoiled human” for “Supercoiled rat”
as §2, with “at rt” for “at it”, “ethanolamine” for “ethanolamine .”
as §3

For `Cc1cccc(CN2CCC(C(=O)c3ncco3)CC2)c1` [Example 65, [1-(3-Methyl-benzyl)-piperidin-4-yl]-oxazol-2-yl-methanone], the IC50 is 970 nM against Rat FAAH and 250 nM against FAAH.
The like results for `Cc1ccc2cc(CN3CCC(C(=O)c4ncco4)CC3)c(Cl)nc2c1` [Example 69, [1-(2-Chloro-7-methyl-quinolin-3-ylmethyl)-piperidin-4-yl]-oxazol-2-yl-methanone] were, in that order, 470 nM and 585 nM.
The corresponding values for `O=C(c1ncco1)C1CCN(Cc2ccc(Cl)c(Cl)c2)CC1` [Example 44, [1-(3,4-Dichloro-benzyl)-piperidin-4-yl]-oxazol-2-yl-methanone] are 5 nM and 5 nM.
The corresponding values for `O=C(c1ncco1)C1CCN(Cc2cccc(Oc3ccccc3)c2)CC1` [Example 56, Oxazol-2-yl-[1-(3-phenoxy-benzyl)-piperidin-4-yl]-methanone] are 132 nM and 28 nM.
As for `Cn1ccc2cc(CN3CCC(C(=O)c4ncco4)CC3)ccc21` [Example 39, [1-(1-Methyl-1H-indol-5-ylmethyl)-piperidin-4-yl]-oxazot-2-yl-methanone], the IC50 against Rat FAAH was 2000 nM; against FAAH, 80 nM.
The corresponding values for `CC(C)c1ccc(CN2CCC(C(=O)c3ncco3)CC2)cc1` [Example 86, [1-(4-Isopropyl-benzyl)-piperidin-4-yl]-oxazol-2-yl-methanone] are 170 nM and 110 nM.
The corresponding values for `CC(c1cccc(C(F)(F)F)c1)N1CCC(C(=O)c2ncco2)CC1` (stereo not shown) [Example 91, Oxazol-2-yl-{1-[1-(3-trifluoromethyl-phenyl)-ethyl]-piperidin-4-yl}-methanone] are 370 nM and 782 nM.
The like results for `O=C(c1ncco1)C1CCN(Cc2ccc(Br)c([N+](=O)[O-])c2)CC1` [Example 26, [1-(4-Bromo-3-nitro-benzyl)-piperidin-4-yl]-oxazol-2-yl-methanone] were, in that order, 9 nM and 3 nM.
Consider `Cc1ccc2nc(Cl)c(CN3CCC(C(=O)c4ncco4)CC3)cc2c1` [Example 74, [1-(2-Chloro-6-methyl-quinolin-3-ylmethyl)-piperidin-4-yl]-oxazol-2-yl-methanone], for which the IC50 at Rat FAAH was 87 nM; at FAAH it was 17 nM.
The corresponding values for `O=C(c1ncco1)C1CCN(Cc2ccc3cccc(Cl)c3n2)CC1` [Example 75, [1-(8-Chloro-quinolin-2-ylmethyl)-piperidin-4-yl]-oxazol-2-yl-methanone] are 4 nM and 4 nM.
The like results for `O=C(c1ncco1)C1CCN(C(=O)c2ccc(Cl)cc2)CC1` [Example 11, [1-(4-Chloro-benzoyl)-piperidin-4-yl]-oxazol-2-yl-methanone] were, in that order, 7500 nM and 2150 nM.
The like results for `O=C(c1ncco1)C1CCN(Cc2ccccc2)CC1` [Example 89, (1-Benzyl-piperidin-4-yl)-oxazol-2-yl-methanone] were, in that order, 7000 nM and 3000 nM.
As to `Cn1c(CN2CCC(C(=O)c3ncco3)CC2)cc2ccccc21` [Example 50, [1-(1-Methyl-1H-indol-2-ylmethyl)-piperidin-4-yl]-oxazol-2-yl-methanone], the IC50 against Rat FAAH worked out at 8 nM; against FAAH, 4 nM.
The like results for `O=C(c1ncco1)C1CCN(Cc2ccc(F)c(F)c2)CC1` [Example 38, [1-(3,4-Difluoro-benzyl)-piperidin-4-yl]-oxazol-2-yl-methanone] were, in that order, 76 nM and 30 nM.
The like results for `O=C(c1ncco1)C1CCN(S(=O)(=O)c2ccc(Cl)cc2)CC1` [Example 4, [1-(4-Chloro-benzenesulfonyl)-piperidin-4-yl]-oxazol-2-yl-methanone] were, in that order, 8000 nM and 1200 nM.
The like results for `Cc1cccc2cc(CN3CCC(C(=O)c4ncco4)CC3)c(Cl)nc12` [Example 73, [1-(2-Chloro-8-methyl-quinolin-3-ylmethyl)-piperidin-4-yl]-oxazol-2-yl-methanone] were, in that order, 4 nM and 2 nM.
Consider `O=C(c1ncco1)C1CCN(Cc2ccc3cccnc3n2)CC1` [Example 41, (1-[1,8]Naphthyridin-2-ylmethyl-piperidin-4-yl)-oxazol-2-yl-methanone], for which the IC50 on Rat FAAH is 1750 nM; against FAAH it was 309 nM.
